How the values were obtained:
Assay type in all cases: in vivo
[1] = test system: Solanum nigrum (SOLNI); assay: B5 Pre-Emergence Efficacy—Test 2; conditions: 250 g/ha, evaluated after 13 days
Method: (§1) B5 Pre-Emergence Efficacy—Test 2 Seeds of a variety of test species were sown in standard soil in pots: Solanum nigrum (SOLNI), Amaranthus retoflexus (AMARE), Setaria faberi (SETFA), Echinochloa crus-galli (ECHCG), Ipomoea hederacea (IPOHE), Lolium perenne (LOLPE). After cultivation for one day (pre-emergence) under controlled conditions in a glasshouse (at 24/16° C., day/night; 14 hours light; 65% humidity), the plants were sprayed with an aqueous spray solution derived from the formulation of the technical active ingredient in acetone/water (50:50) solution containing 0.5% Tween 20 (polyoxyethelyene sorbitan monolaurate, CAS RN 9005-64-5). Compounds are applied at 250 g/ha. The test plants were then grown in a glasshouse under controlled conditions (at 24/16° C., day/night; 14 hours light; 65% humidity) and watered twice daily. After 13 days, the test is evaluated for the percentage damage caused to the plant. The biological activities are assessed on a five point scale (5=80-100%; 4=60-79%; 3=40-59%; 2=20-39%; 1=0-19%). A blank value in the table is indicative that the compound was not tested on that species.

[2] = test system: Amaranthus retoflexus (AMARE); assay: B5 Pre-Emergence Efficacy—Test 2; conditions: 250 g/ha, evaluated after 13 days
Method: as §1

[3] = test system: Echinochloa crus-galli (ECHCG); assay: B2 Post-Emergence Efficacy—Test 2; conditions: post-emergence application, 250 g/ha, evaluated after 13 days (Test 2)
Method: (§2) B2 Post-Emergence Efficacy—Test 2 Seeds of a variety of test species are sown in standard soil in pots:—Solanum nigrum (SOLNI), Amaranthus retoflexus (AMARE), Setaria faberi (SETFA), Echinochloa crus-galli (ECHCG), Ipomoea hederacea (IPOHE), Lolium perenne (LOLPE). After 8 days cultivation (post-emergence) under controlled conditions in a glasshouse (at 24/16° C., day/night; 14 hours light; 65% humidity), the plants are sprayed with an aqueous spray solution derived from the formulation of the technical active ingredient in acetone/water (50:50) solution containing 0.5% Tween 20 (polyoxyethylene sorbitan monolaurate, CAS RN 9005-64-5). Compounds are applied at 250 g/ha. The test plants are then grown in a glasshouse under controlled conditions in a glasshouse (at 24/16° C., day/night; 14 hours light; 65% humidity) and watered twice daily. After 13 days, the test is evaluated for the percentage damage caused to the plant. The biological activities are assessed on a five point scale (5=80-100%; 4=60-79%; 3=40-59%; 2=20-39%; 1=0-19%). A blank value in the table is indicative that the compound was not tested on that species.

[4] = test system: Lolium perenne (LOLPE); assay: B2 Post-Emergence Efficacy—Test 2; conditions: post-emergence application, 250 g/ha, evaluated after 13 days (Test 2)
Method: as §2

[5] = test system: Solanum nigrum (SOLNI); assay: B2 Post-Emergence Efficacy—Test 2; conditions: post-emergence application, 250 g/ha, evaluated after 13 days (Test 2)
Method: as §2

[6] = test system: Setaria faberi (SETFA); assay: B2 Post-Emergence Efficacy—Test 2; conditions: post-emergence application, 250 g/ha, evaluated after 13 days (Test 2)
Method: as §2

[7] = test system: Amaranthus retoflexus (AMARE); assay: B2 Post-Emergence Efficacy—Test 2; conditions: post-emergence application, 250 g/ha, evaluated after 13 days (Test 2)
Method: as §2

[8] = test system: Ipomoea hederacea (IPOHE); assay: B2 Post-Emergence Efficacy—Test 2; conditions: post-emergence application, 250 g/ha, evaluated after 13 days (Test 2)
Method: as §2

[9] = test system: Echinochloa crus-galli (ECHCG); assay: B5 Pre-Emergence Efficacy—Test 2; set-up: key: 5-point scale: 5=80-100%, 4=60-79%, 3=40-59%, 2=20-39%, 1=0-19% damage; conditions: 250 g/ha, evaluated after 13 days
Method: as §1

[10] = test system: Lolium perenne (LOLPE); assay: B5 Pre-Emergence Efficacy—Test 2; set-up: key: 5-point scale: 5=80-100%, 4=60-79%, 3=40-59%, 2=20-39%, 1=0-19% damage; conditions: 250 g/ha, evaluated after 13 days
Method: as §1

[11] = test system: Setaria faberi (SETFA); assay: B5 Pre-Emergence Efficacy—Test 2; set-up: key: 5-point scale: 5=80-100%, 4=60-79%, 3=40-59%, 2=20-39%, 1=0-19% damage; conditions: 250 g/ha, evaluated after 13 days
Method: as §1

[12] = test system: Ipomoea hederacea (IPOHE); assay: B5 Pre-Emergence Efficacy—Test 2; set-up: key: 5-point scale: 5=80-100%, 4=60-79%, 3=40-59%, 2=20-39%, 1=0-19% damage; conditions: 250 g/ha, evaluated after 13 days
Method: as §1

| Compound | Control of weed species after pre-emergence application, SOLNI (percentage damage, five point scale) [1] | Control of weed species after pre-emergence application, AMARE (percentage damage, five point scale) [2] | percentage damage caused to the plant, five point scale, ECHCG [3] | percentage damage caused to the plant, five point scale, LOLPE [4] | percentage damage caused to the plant, five point scale, SOLNI [5] | percentage damage caused to the plant, five point scale, SETFA [6] | percentage damage caused to the plant, five point scale, AMARE [7] | percentage damage caused to the plant, five point scale, IPOHE [8] | Control of weed species after pre-emergence application, ECHCG (percentage damage, five point scale) [9] | Control of weed species after pre-emergence application, LOLPE (percentage damage, five point scale) [10] | Control of weed species after pre-emergence application, SETFA (percentage damage, five point scale) [11] | Control of weed species after pre-emergence application, IPOHE (percentage damage, five point scale) [12] |
| --- | --- | --- | --- | --- | --- | --- | --- | --- | --- | --- | --- | --- |
| Cc1nn(C)c(=O)c(-c2c(F)ccc(Cl)c2/C=C/c2ccc(C#N)cc2)c1OC(=O)C(C)C [Compound A-4.036, [5-[3-Chloro-2-[(E)-2-(4-cyanophenyl)vinyl]-6-fluoro-phenyl]-1,3-dimethyl-6-oxo-pyridazin-4-yl] 2-methylpropanoate] | 5 (5=80-100%) | 2 (2=20-39%) | 3 (3=40-59%) | 3 (3=40-59%) | 5 (5=80-100%) | 1 (1=0-19%) | 2 (2=20-39%) | 4 (4=60-79%) | 1 (1=0-19%) | 1 (1=0-19%) | 0 | 3 (3=40-59%) |
| Cc1nn(C)c(=O)c(-c2c(F)ccc(Cl)c2CCc2cccc(C#N)c2)c1O [Compound A-1.030] | 5 (5=80-100%) | 5 (5=80-100%) | 4 (4=60-79%) | 5 (5=80-100%) | 5 (5=80-100%) | 4 (4=60-79%) | 4 (4=60-79%) | 5 (5=80-100%) | 5 (5=80-100%) | 4 (4=60-79%) | 5 (5=80-100%) | 0 |
| Cc1nn(C)c(=O)c(-c2c(F)ccc(Cl)c2/C=C/c2ccc(C3CC3)cc2)c1OC(=O)C(C)C [Compound A-4.038, [5-[3-chloro-2-[(E)-2-(4-cyclopropylphenyl)vinyl]-6-fluoro-phenyl]-1,3-dimethyl-6-oxo-pyridazin-4-yl] 2-methylpropanoate] | 1 (1=0-19%) | 2 (2=20-39%) | 1 (1=0-19%) | 1 (1=0-19%) | 5 (5=80-100%) | 0 | 1 (1=0-19%) | 2 (2=20-39%) | 0 | 0 | 0 | 0 |
| Cc1nn(C)c(=O)c(-c2c(F)ccc(Cl)c2/C=C/c2ccccc2C#N)c1OC(=O)C(C)C [Compound A-4.029] | 4 (4=60-79%) | 2 (2=20-39%) | 1 (1=0-19%) | 1 (1=0-19%) | 4 (4=60-79%) | 0 | 4 (4=60-79%) | 4 (4=60-79%) | 0 | 0 | 0 | 0 |
| CCN(C)C(=O)c1ccc(CCc2c(Cl)ccc(F)c2-c2c(OC(=O)C(C)C)c(C)nn(C)c2=O)cc1F [Compound A-3.028, [5-[3-Chloro-2-[2-[4-[ethyl(methyl)carbamoyl]-3-fluoro-phenyl]ethyl]-6-fluoro-phenyl]-1,3-dimethyl-6-oxo-pyridazin-4-yl] 2-methylpropanoate] | 5 (5=80-100%) | 5 (5=80-100%) | 5 (5=80-100%) | 5 (5=80-100%) | 5 (5=80-100%) | 4 (4=60-79%) | 4 (4=60-79%) | 5 (5=80-100%) | 5 (5=80-100%) | 5 (5=80-100%) | 5 (5=80-100%) | 5 (5=80-100%) |
| CCN(C)C(=O)c1ccc(CCc2c(Cl)ccc(F)c2-c2c(O)c(C)nn(C)c2=O)cc1F [Compound A-1.028, 4-[2-[6-chloro-3-fluoro-2-(5-hydroxy-2,6-dimethyl-3-oxo-pyridazin-4-yl)phenyl]ethyl]-N-ethyl-2-fluoro-N-methyl-benzamide] | 5 (5=80-100%) | 5 (5=80-100%) | 5 (5=80-100%) | 5 (5=80-100%) | 5 (5=80-100%) | 5 (5=80-100%) | 5 (5=80-100%) | 5 (5=80-100%) | 4 (4=60-79%) | 5 (5=80-100%) | 5 (5=80-100%) | 5 (5=80-100%) |
